Measurements taken from PubChem BioAssay AID270 (DTP/NCI, 2004).
Values joined by “and” are separate entries in the source; they are usually repeats but may differ in a detail not shown here. Equal entries are not always repeated. Results filed as inconclusive are left out.

System: BDF1 mice, s.c. Lewis lung carcinoma, T/C %
Assay: NCI In Vivo Anticancer Drug Screen. Data for tumor model Lewis Lung Carcinoma (subcutaneous) in B6D2F1 (BDF1) mice
In short: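 Tumor-bearing mice were treated with test compound, and either survival or tumor size was recorded. Values are the treated-group measurement divided by that of the vehicle-treated control group.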

## Nc1nc(SN=Nc2ccc(S(N)(=O)=O)cc2)c2[nH]cnc2n1
endpoint: mean tumor weight, dose: 0.6 mg/kg/injection, schedule: Q01DX011 (ip), vehicle: saline, higher = larger tumour
  T/C: 64 % of control
endpoint: mean tumor weight, dose: 1.0 mg/kg/injection, schedule: Q01DX011 (ip), vehicle: saline, higher = larger tumour
  T/C: 43 % of control
endpoint: mean tumor weight, dose: 1.5 mg/kg/injection, schedule: Q01DX011 (ip), vehicle: saline, higher = larger tumour
  T/C: 93 % of control
endpoint: mean tumor weight, dose: 2.2 mg/kg/injection, schedule: Q01DX011 (ip), vehicle: other, higher = larger tumour
  T/C: 67 % of control
endpoint: mean tumor weight, dose: 2.2 mg/kg/injection, schedule: Q01DX011 (ip), vehicle: saline, higher = larger tumour
  T/C: 52 % of control and 67 % of control
endpoint: mean tumor weight, dose: 3.3 mg/kg/injection, schedule: Q01DX011 (ip), vehicle: other, higher = larger tumour
  T/C: 72 % of control
endpoint: mean tumor weight, dose: 3.3 mg/kg/injection, schedule: Q01DX011 (ip), vehicle: saline, higher = larger tumour
  T/C: 36 % of control
endpoint: mean tumor weight, dose: 5.0 mg/kg/injection, schedule: Q01DX011 (ip), vehicle: other, higher = larger tumour
  T/C: 35 % of control
endpoint: mean tumor weight, dose: 5.0 mg/kg/injection, schedule: Q01DX011 (ip), vehicle: saline, higher = larger tumour
  T/C: 40 % of control
endpoint: mean tumor weight, dose: 7.5 mg/kg/injection, schedule: Q01DX011 (ip), vehicle: other, higher = larger tumour
  T/C: 11 % of control
endpoint: mean tumor weight, dose: 7.5 mg/kg/injection, schedule: Q01DX011 (ip), vehicle: saline, higher = larger tumour
  T/C: 19 % of control

## C[C@]12CCC(=O)C=C1CC[C@@H]1[C@@H]2[C@@H](O)C[C@@]2(C)[C@H]1CC[C@]2(O)C(=O)COC(=O)c1ccc([N+](=O)[O-])cc1Cl
endpoint: mean tumor weight, dose: 25.0 mg/kg/injection, schedule: Q01DX011 (sc), vehicle: steriod suspending solution, higher = larger tumour
  T/C: 65 % of control
endpoint: mean tumor weight, dose: 50.0 mg/kg/injection, schedule: Q01DX011 (sc), vehicle: steriod suspending solution, higher = larger tumour
  T/C: 71 % of control
endpoint: mean tumor weight, dose: 100.0 mg/kg/injection, schedule: Q01DX011 (sc), vehicle: steriod suspending solution, higher = larger tumour
  T/C: 47 % of control
endpoint: mean tumor weight, dose: 200.0 mg/kg/injection, schedule: Q01DX011 (sc), vehicle: steriod suspending solution, higher = larger tumour
  T/C: 53 % of control
endpoint: mean tumor weight, dose: 250.0 mg/kg/injection, schedule: Q01DX011 (sc), vehicle: steriod suspending solution, higher = larger tumour
  T/C: 18 % of control
endpoint: mean tumor weight, dose: 500.0 mg/kg/injection, schedule: Q01DX011 (sc), vehicle: steriod suspending solution, higher = larger tumour
  T/C: 25 % of control
endpoint: mean tumor weight, dose: 750.0 mg/kg/injection, schedule: Q01DX011 (sc), vehicle: steriod suspending solution, higher = larger tumour
  T/C: 13 % of control

## O=C(O)C(O)C(O)C1[O][Sb][O]C1CO (centres undefined)
endpoint: median survival time, dose: 50.0 mg/kg/injection, schedule: Q01DX009 (ip), vehicle: saline, higher = longer survival
  T/C: 104 % of control
endpoint: median survival time, dose: 100.0 mg/kg/injection, schedule: Q01DX009 (ip), vehicle: saline, higher = longer survival
  T/C: 102 % of control

## O=S(=O)(Cl)c1cc(Cl)c(Cl)cc1Cl
endpoint: mean tumor weight, dose: 133.0 mg/kg/injection, schedule: Q01DX011 (ip), vehicle: other, higher = larger tumour
  T/C: 71 % of control
endpoint: mean tumor weight, dose: 300.0 mg/kg/injection, schedule: Q01DX011 (ip), vehicle: other, higher = larger tumour
  T/C: 83 % of control
endpoint: mean tumor weight, dose: 450.0 mg/kg/injection, schedule: Q01DX011 (ip), vehicle: other, higher = larger tumour
  T/C: 28 % of control and 41 % of control
endpoint: mean tumor weight, dose: 600.0 mg/kg/injection, schedule: Q01DX011 (ip), vehicle: other, higher = larger tumour
  T/C: 75 % of control

## COc1cccc(C=O)c1O
endpoint: mean tumor weight, dose: 12.5 mg/kg/injection, schedule: Q01DX011 (ip), vehicle: carboxymethylcellulose (CMC), higher = larger tumour
  T/C: 106 % of control
endpoint: mean tumor weight, dose: 25.0 mg/kg/injection, schedule: Q01DX011 (ip), vehicle: carboxymethylcellulose (CMC), higher = larger tumour
  T/C: 58 % of control
endpoint: mean tumor weight, dose: 50.0 mg/kg/injection, schedule: Q01DX011 (ip), vehicle: carboxymethylcellulose (CMC), higher = larger tumour
  T/C: 88 % of control

## C1CCNCC1
endpoint: mean tumor weight, dose: 6.25 mg/kg/injection, schedule: Q01DX011 (ip), vehicle: saline, higher = larger tumour
  T/C: 87 % of control
endpoint: mean tumor weight, dose: 12.5 mg/kg/injection, schedule: Q01DX011 (ip), vehicle: saline, higher = larger tumour
  T/C: 87 % of control
endpoint: mean tumor weight, dose: 25.0 mg/kg/injection, schedule: Q01DX011 (ip), vehicle: saline, higher = larger tumour
  T/C: 94 % of control
endpoint: mean tumor weight, dose: 50.0 mg/kg/injection, schedule: Q01DX011 (ip), vehicle: saline, higher = larger tumour
  T/C: 73 % of control and 95 % of control
endpoint: mean tumor weight, dose: 100.0 mg/kg/injection, schedule: Q01DX011 (ip), vehicle: saline, higher = larger tumour
  T/C: 83 % of control

## CNC(=O)Nc1ccccc1C(=O)NN
endpoint: median survival time, dose: 25.0 mg/kg/injection, schedule: Q01DX009 (ip), vehicle: Klucel (hydroxypropylcellulose) (HPC), higher = longer survival
  T/C: 113 % of control
endpoint: median survival time, dose: 50.0 mg/kg/injection, schedule: Q01DX009 (ip), vehicle: Klucel (hydroxypropylcellulose) (HPC), higher = longer survival
  T/C: 96 % of control
endpoint: median survival time, dose: 100.0 mg/kg/injection, schedule: Q01DX009 (ip), vehicle: Klucel (hydroxypropylcellulose) (HPC), higher = longer survival
  T/C: 102 % of control
endpoint: median survival time, dose: 200.0 mg/kg/injection, schedule: Q01DX009 (ip), vehicle: Klucel (hydroxypropylcellulose) (HPC), higher = longer survival
  T/C: 93 % of control

## CCC(c1ccc(O)cc1)C(CC)c1ccc(OC)cc1 (centres undefined)
endpoint: mean tumor weight, dose: 4.0 mg/kg/injection, schedule: Q01DX011 (sc), vehicle: steriod suspending solution, higher = larger tumour
  T/C: 60 % of control
endpoint: mean tumor weight, dose: 8.0 mg/kg/injection, schedule: Q01DX011 (sc), vehicle: steriod suspending solution, higher = larger tumour
  T/C: 36 % of control
endpoint: mean tumor weight, dose: 16.0 mg/kg/injection, schedule: Q01DX011 (sc), vehicle: steriod suspending solution, higher = larger tumour
  T/C: 33 % of control
endpoint: mean tumor weight, dose: 31.3 mg/kg/injection, schedule: Q01DX011 (ip), vehicle: saline, higher = larger tumour
  T/C: 23 % of control
endpoint: mean tumor weight, dose: 32.0 mg/kg/injection, schedule: Q01DX011 (sc), vehicle: steriod suspending solution, higher = larger tumour
  T/C: 16 % of control
endpoint: mean tumor weight, dose: 62.5 mg/kg/injection, schedule: Q01DX011 (ip), vehicle: saline, higher = larger tumour
  T/C: 21 % of control
endpoint: mean tumor weight, dose: 125.0 mg/kg/injection, schedule: Q01DX011 (ip), vehicle: saline, higher = larger tumour
  T/C: 16 % of control
endpoint: mean tumor weight, dose: 250.0 mg/kg/injection, schedule: Q01DX011 (ip), vehicle: saline, higher = larger tumour
  T/C: 13 % of control
